The values below come from patent publication US20250108038A1 (priority 2023, published 2025).

A short description of the data set: Stability in components of rat blood. The format is in vitro ADME. As to conditions: 0.5 mM, 37° C., 0-120 min. The protocol:
FIG. 5A. […] Compound I-19 in components of rat blood. Red blood cells and plasma were isolated from whole blood. […] Values represent mean+SEM of n=3 separate experiments.
FIG. 5B. Stability of Compound I-4 in components of rat blood. Red blood cells and plasma were isolated from whole blood. […] Values represent mean+SEM of n=3 separate experiments.
Human and rat blood were centrifuged to separate out red blood cells at 1174×g for 15 min. The upper plasma level was aspirated with a micropipette and placed in a bleach solution for disposal. The RBC pellet was resuspended in sterile isotonic saline. The pellet was gently resuspended by rocking the tube. The sample was then centrifuged again to collect the RBC pellet and then resuspended and washed one more time following the same procedure. A total of three was done. Following the last wash and centrifugation, the RBCs were resuspended with PBS; and mixed by inversion. Aliquots of the resuspended and washed RBCs were then placed into 4 reaction tubes. These tubes were centrifuged to collect the RBCs. The fluid level was marked on each tube, then the supernatant was aspirated off and the cells resuspended with room temperature PBS pH 7.4 to the original mark. An aliquot of the RBC suspension was added to four sterile tubes containing PBS pH 7.4 at room temperature.
The stability of test articles in whole blood, red blood cells only, and plasma was done to determine stability in each blood compartment. 50 μL of test article was placed in each blood matrix. The final volume was 1 mL (0.5 mM). […] LCMSMS of parent compound was used to determine stability.

Consider `COCCOC1(c2ccc(Cl)cc2)c2ccccc2C2=NCCN21` (stereo not drawn) [Compound I-4], for which the “% parent compound remaining” value reads like this: (rat plasma) “no significant change in the amount of parent compound”; (rat red blood cells) “small time-dependent decrease in the amount of parent compound remaining”; (rat whole blood) “small time-dependent decrease in the amount of parent compound remaining”.
Consider `Clc1ccc(C2(OCC3OCCO3)c3ccccc3C3=NCCN32)cc1` (stereo not drawn) [Compound I-19], for which the “% parent compound remaining” value (rat plasma) is “small time-dependent decrease in the amount of parent compound present”, the “% parent compound remaining” value (rat red blood cells) is “small time-dependent decrease in the amount of parent compound present” and the “% parent compound remaining” value (rat whole blood) is “small time-dependent decrease in the amount of parent compound present”.
